The results in this text go back to PubChem BioAssay (NCI).

Test in all cases: growth of human tumour cells (NCI), 48 h
The test system of test [1] is A498 renal.
Test [2] concerns DU-145 prostate.
Test [3] has as its system HCC-2998 colon.
Test [4] concerns HCT-15 colon.
Test [5] relates to KM12 colon.
Test [6] relates to OVCAR-3 ovarian.
The subject of test [7] is OVCAR-5 ovarian.
Test [8] concerns SF-539 CNS.
Test [9] relates to SK-OV-3 ovarian.
Test [10] relates to UO-31 renal.

Each structure is given as a SMILES string.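 Protocol summary: plate cells (96-well), add compound at 5 concentrations, incubate 48 h, interpolate endpoints linearly. Abbreviation: GI50, concentration required for 50% inhibition of growth. TGI marks complete inhibition of growth.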

Turning to `Cn1c2ccccc2n2c3nc4ccccc4nc3c(C#N)c12`, the TGI was 9.72 µM in test [1]; over 100 µM in test [2]; over 79.1 µM in [3]; over 100 µM in test [4]; over 100 µM in test [5]; over 100 µM in [6]. The TGI in test [7], in test [8], in test [9] and in test [10] was over 100 µM throughout.
As to `O=C(N/N=C/c1ccc(F)cc1)c1[nH]c2ccc(I)cc2c1-c1ccccc1`, the GI50 in test [1] is 0.409 µM; in [2], 0.479 µM; in test [3] it was 0.888 µM; in test [4] it was 0.39 µM; in test [5], 0.385 µM; in test [6], 0.229 µM. Further, the GI50 in test [7] is 3.49 µM; in test [8], 0.338 µM; in test [9], 0.464 µM; in [10] it was 1.98 µM. The TGI was 2.46 µM in test [2]; 12.5 µM in [3]; over 58.3 µM in [4]; 2.11 µM in test [5]; 0.531 µM in test [6]; over 100 µM in test [7]. Besides, the TGI in test [8] was determined as 1.34 µM; in [9] it was 10.7 µM; in [10], 52.6 µM.
In the case of `Cc1cc(O)cc(C)c1/C=C/c1cncc(C(=O)N(C)C)c1`, the GI50 in test [1], in test [2], in test [3], in test [4], in test [5] and in test [6] was over 25 µM throughout. In addition, the GI50 in [7], in test [8], in test [9] and in test [10] was over 25 µM each time. For the same compound, the TGI in test [1], in test [2], in test [3], in [4], in [5] and in test [6] was over 25 µM in each case. The TGI in test [7], in [8], in [9] and in [10] was over 25 µM in each case.
Consider `O=C1NC(=O)C(c2ccccc2Cl)=C1Nc1cccc(O)c1`, for which the GI50 in [1] is 6.49 µM; in test [2], 9.29 µM; in [3], over 25 µM; in test [4], 2.47 µM; in test [5] it was 2.51 µM; in [6], 4.95 µM. Moreover, the GI50 in test [7] was over 20.5 µM; in [8] it was 8.93 µM; in [9], 4.99 µM; in [10], 7.24 µM. Also, the TGI in test [1], in test [2], in test [3], in [4], in test [5] and in test [6] was over 25 µM each time. The TGI in test [7], in test [8], in test [9] and in test [10] was over 25 µM throughout.
As to `CCCCc1cc(O)ccc1O`, the GI50 in [1] was over 100 µM; in test [2], 80.7 µM; in test [3] it was 70.8 µM; in test [4], 28.2 µM; in [5], 16.4 µM; in test [6] it was 7.84 µM. The GI50 in [7] was 30 µM; in [8], 11.5 µM; in [9], 64.5 µM; in test [10], 10.8 µM. The TGI in test [1] was over 100 µM; in test [2], over 100 µM; in [3] it was over 100 µM; in test [4], over 100 µM; in test [5], over 100 µM; in [6], 21.8 µM. For the same compound, the TGI was over 100 µM in test [7], 45.4 µM in test [8], over 100 µM in [9] and 28.1 µM in [10].
Turning to `Cc1ccc(-c2cc3nc(-c4ccccc4)nc(C(Cl)Cl)n3n2)cc1`, the GI50 in [1] was 0.672 µM; in [2], 0.573 µM; in test [3], 0.891 µM; in [4] it was 0.958 µM; in [5] it was 0.701 µM; in [6], 0.737 µM. Further, the GI50 in [7] was 1.19 µM; in test [8], 0.911 µM; in test [9], 1.52 µM; in [10], 0.719 µM. Also, the TGI came to 1.39 µM in [1]; 1.2 µM in test [2]; 1.69 µM in test [3]; 3.13 µM in test [4]; 1.96 µM in [5]; 1.47 µM in test [6]. The TGI in test [7] stood at 3.31 µM; in [8] it was 2.19 µM; in test [9] it was 18.6 µM; in test [10] it was 1.41 µM.
For `C=C1C(=O)O[C@H]2[C@H]1CC/C(COC(=O)c1ccc(C(=O)O)s1)=C\CC[C@@]1(C)O[C@@H]21`, the GI50 is 7.5 µM in [1]; 1.59 µM in [2]; 3.47 µM in test [3]; 1.65 µM in test [4]; 2.82 µM in [5]; 1.43 µM in test [6]. In addition, the GI50 in test [7] was 3.05 µM; in test [8] it was 1.62 µM; in [9], 12.3 µM; in test [10], 1.4 µM. For the same compound, the TGI in [1] turned out to be 20.3 µM; in test [2], 3.13 µM; in test [3] it was 11.5 µM; in [4] it was 4.72 µM; in [5], 8.46 µM; in test [6], 2.98 µM. The TGI in [7] came to 10.1 µM; in [8] it was 3.04 µM; in test [9], 25.1 µM; in test [10], 3.04 µM.
For the compound `CCC(=O)N1C/C(=C/c2ccc(OC)cc2)C(=O)/C(=C/c2ccc(OC)cc2)C1`, the GI50 in test [1] is 1.92 µM; in [2], 2.91 µM; in test [3], 1.93 µM; in test [4] it was 2.03 µM; in test [5], 1.38 µM; in [6], 1.82 µM. Moreover, the GI50 in [7] is 1.86 µM; in [8], 1.62 µM; in [9], 4.61 µM; in [10] it was 1.34 µM. Further, the TGI amounted to 3.51 µM in test [1]; 10.6 µM in test [2]; 3.42 µM in [3]; 5.31 µM in test [4]; 2.85 µM in [5]; 3.73 µM in [6]. The TGI worked out at 3.75 µM in test [7], 3.1 µM in [8], 27.9 µM in test [9] and 2.71 µM in test [10].
Regarding `Cc1ccc2c(c1)sc(-c1ccc(N(C)C)cc1)[n+]2C`, the GI50 was 0.785 µM in test [1]; 1.95 µM in test [2]; 1.51 µM in test [3]; 18.8 µM in test [4]; 0.397 µM in test [5]; 0.685 µM in test [6]. In addition, the GI50 in test [8] was 2.56 µM; in test [9], 2.04 µM; in test [10] it was 18.9 µM. Moreover, the TGI in test [1] is 8.16 µM; in test [2], 32 µM; in test [3], 19 µM; in test [4], over 100 µM; in test [5], 14.6 µM; in test [6], 15 µM. In addition, the TGI in test [7] was over 100 µM; in test [8], 14.1 µM; in [9], 7.91 µM; in test [10], over 100 µM.
As for `COC1C(=O)CCC2(CO2)C1(O)C1(C)OC1CCC(C)C` (stereo not drawn), the TGI in [1], in test [2], in test [3], in test [4], in test [5] and in test [6] was over 100 µM in each case. In addition, the TGI in test [7], in test [8], in test [9] and in [10] was over 100 µM each time.
Turning to `CCOC(=O)/C=C/c1ccc(C(=O)OCC)[nH]1`, the GI50 was 1.61 µM in [1]; 3.41 µM in [2]; 12.3 µM in [3]; 3.11 µM in test [4]; 0.601 µM in test [5]; 2.38 µM in test [6]. Further, the GI50 in [7] is 19.5 µM; in test [8], 5.91 µM; in [9], 27.8 µM; in [10], 4 µM. Further, the TGI in test [1] is 12.1 µM; in test [2], 19.6 µM; in test [3], 77.3 µM; in test [4], over 100 µM; in test [5], 92.6 µM; in test [6], 7.64 µM. The TGI in [7] is over 100 µM; in test [8] it was 42.5 µM; in test [9] it was over 100 µM; in test [10], over 100 µM.
With `CC[C@@]1(OC(=O)CCC(=O)O)C(=O)OCc2c1cc1n(c2=O)Cc2cc3ccccc3nc2-1`, the TGI was 1.27 µM in [1]; 1.51 µM in [2]; 4.29 µM in [3]; 11.7 µM in test [4]; 3.2 µM in test [5]; 3.88 µM in test [6]. Besides, the TGI in test [7] was determined as 11.9 µM; in test [8], 0.238 µM; in test [9], 14.2 µM; in test [10], 0.493 µM.
On to `CC1(C)C(=O)/C(=C\c2ccco2)C[C@]2(C)[C@H]3CC=C4[C@@H]5C[C@](C)(C(=O)O)CC[C@]5(C)CC[C@@]4(C)[C@]3(C)CC[C@@H]12`, for which the GI50 in [1] is 10.3 µM; in [2] it was 9.87 µM; in test [3], 11 µM; in test [4] it was 5.26 µM; in [5], 5.88 µM; in [6], 10.9 µM. The GI50 in test [7] was 15.6 µM; in [8] it was 13.2 µM; in test [9], 14.4 µM; in [10], 5.01 µM. The TGI in [1] turned out to be 22.4 µM; in test [2] it was 24.2 µM; in [3], 24.3 µM; in test [4], 18.8 µM; in [5], 19.5 µM; in test [6] it was 26.1 µM. Further, the TGI stood at 32.2 µM in [7], 27.3 µM in test [8], 29.3 µM in test [9] and 19.9 µM in test [10].
Take `Nc1ccc2c(c1)[O][Sn]([c]1ccccc1)([c]1ccccc1)[O]C2=O`: the GI50 in test [1] was 18 µM; in test [2], 15.5 µM; in [3], 17.8 µM; in test [4] it was 6.8 µM; in [5], 16.5 µM; in [6], 6.79 µM. Besides, the GI50 in test [7] was 17.2 µM; in test [8] it was 9.5 µM; in [9], 14.7 µM; in [10], 12.5 µM. The TGI in [1] is 31.9 µM; in test [2] it was 28.9 µM; in test [3], 33.2 µM; in [4], 17.9 µM; in test [5] it was 33.5 µM; in test [6] it was 15.9 µM. Further, the TGI in test [7] is 31.1 µM; in test [8], 18.8 µM; in test [9], 43.8 µM; in test [10] it was 26 µM.
In the case of `CCN(CC)CC(C)Nc1ccc(C)c2sc3ccccc3c(=O)c12` (stereo not drawn), the GI50 in [1] was 1.92 µM; in test [2], 6.68 µM; in [3], 3.19 µM; in test [4], 3.39 µM; in [5], 4.71 µM; in test [6], 6.33 µM. The GI50 in [7] is 2.95 µM; in test [8] it was 3.2 µM; in test [9], 2.85 µM; in test [10], 1.77 µM. In addition, the TGI in test [1] amounted to 8.07 µM; in [2] it was 19.1 µM; in test [3] it was 15 µM; in [4] it was 14.7 µM; in test [5], 16.9 µM; in test [6], 19.2 µM. Besides, the TGI was 12.4 µM in test [7], 12.7 µM in test [8], 12.3 µM in test [9] and 7.69 µM in [10].
